According to patent US6403576B1, “Antifungal and antiparasitic compounds” (priority 1998, dated 2002):
pIC50: −log10 of the molar value. In brackets after ≈: the same amount, converted by molar mass. Where a name gives a salt, the structure may show the parent alone. Read-outs that look alike come from different tables or passages of the source.

Key:
[1] = tested on: T.b. rhodesiense KETRI 243 As-10-3; assay: Growth of bloodform trypanosomes in vitro, IC50 at 48 h; type: cell-based; conditions: Trypanosoma brucei
From the text: (§1) Trypanosome (a) IN VITRO drug screening method: 14 clinical isolates of Trypanosoma brucei rhodesiense (agent of East African Sleeping Sickness) many of which are refractory to standard trypanocides such as diamidines and melarsoprol (Bacchi et al., 1990, Antimicrob Agents Chemother 34, 1183-1188) are maintained as laboratory infections in rats and mice and as frozen stabilates of blood forms. Six of these isolates have been cultivated as blood forms in modified Iscove's medium (Hirumi & Hirumi, 1989, J Parasitol 75, 985-989). These cultivated blood forms are fully infective and serve as the initial screen for trypanocides based on a 24 well culture plate system and readings done on duplicate wells using a Coulter Counter (Bacchi and Yartlett, 1993, Acta Tropica 54, 225-236; Bacchi et al., 1996, Antimicrob Agents Chemother 4, 1448-1453). This screen has proven highly reproducible, needs minimal drug since the volume is limited (1 ml medium/well) and is complete after 48 h. It has proven to be highly predictive of in vivo activity (e.g., Brun et al., 1996, Antimicrob Agents Chemother 40, 1442-1447; Bacchi et al., 1996, supra).
(§2) The trypanosomes studied were Trypanosoma brucei brucei Lab 110 EATRO, which is pathogenic to cattle and other livestock, and several strains of Trypanosoma brucei rhodesiense, a parasite of humans, domestic and wild animals. Strains of T. b. rhodesiense included drug resistant clinical isolates KETRI 243 and 269 and KETRI 243 As-10-3, a highly melarsen- and diamidine-resistant clone of KETRI 243. The 19 extracts were tested in an in vitro screen using a semi-defined medium for growth of bloodstream trypomastigotes at 37° C. (Hirumi & Hirumi, 1989, supra) to determine IC50 values (Bacchi et al., 1996, supra).
(§3) Numerous similarities in leishmanial and trypanosomal lipid uptake and metabolism may explain common natural product drug susceptibility. Inhibitory of cholesterol synthesis, metabolism, and/or excretion described above in the detailed description were tested versus trypanosome isolates grown as bloodforms in HMI-18 medium containing 10% fetal bovine serum.

[2] = tested on: T.b. brucei Lab 110 EATRO; assay: as above; type: cell-based, Trypanosoma brucei brucei; conditions: for IC50: Trypanosoma brucei
From the text: as §1, with “1448-1453).” for “1448-1453). This screen has proven highly reproducible, needs minimal drug since the volume is limited (1 ml medium/well) and is complete after 48 h. It has proven to be highly predictive of in vivo activity (e.g., Brun et al., 1996, Antimicrob Agents Chemother 40, 1442-1447; Bacchi et al., 1996, supra).”
as §2
Inhibitory of cholesterol synthesis, metabolism, and/or excretion described above in the detailed description were tested versus trypanosome isolates grown as bloodforms in HMI-18 medium containing 10% fetal bovine serum.

[3] = tested on: T.b. rhodesiense KETRI 243; assay: as above; type: cell-based, Trypanosoma brucei rhodesiense; conditions: for IC50: Trypanosoma brucei, RHODESIENSE
From the text: as §1, §2, §3

[4] = tested on: T.b. rhodesiense KETRI 269; assay: as above; type: cell-based, Trypanosoma brucei rhodesiense; conditions: for IC50: Trypanosoma brucei, RHODESIENSE
From the text: as §1, §2, §3

[5] = molecular target: Squalene Synthetase; conditions: Abe et al, 1994; cited from earlier work
[6] = tested on: J-774 A.1 macrophages; conditions: 10 uM; not from mevalonate; cited from earlier work
[7] = molecular target: Squalene Oxidase (Homo sapiens, UniProt Q14534); conditions: Abe et al, 1994; cited from earlier work
Squalene Oxidase, sequence (Q14534 whole entry): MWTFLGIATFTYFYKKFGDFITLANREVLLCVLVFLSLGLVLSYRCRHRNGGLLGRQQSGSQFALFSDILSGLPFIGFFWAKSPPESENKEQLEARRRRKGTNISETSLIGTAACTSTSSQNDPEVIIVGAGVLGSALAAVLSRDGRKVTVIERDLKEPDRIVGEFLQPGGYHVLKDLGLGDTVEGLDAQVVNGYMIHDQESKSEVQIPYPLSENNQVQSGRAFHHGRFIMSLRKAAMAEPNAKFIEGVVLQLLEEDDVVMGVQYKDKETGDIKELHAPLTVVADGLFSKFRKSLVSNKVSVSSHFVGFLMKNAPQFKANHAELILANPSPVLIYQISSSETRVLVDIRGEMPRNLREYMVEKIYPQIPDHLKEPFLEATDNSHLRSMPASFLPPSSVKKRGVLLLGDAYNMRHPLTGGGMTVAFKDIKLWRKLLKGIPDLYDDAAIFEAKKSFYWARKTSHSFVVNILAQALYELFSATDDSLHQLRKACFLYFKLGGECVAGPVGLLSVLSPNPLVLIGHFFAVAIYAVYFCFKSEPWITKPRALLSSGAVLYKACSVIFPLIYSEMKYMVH

[8] = tested on: Leishmania; assay: Mevalonate as nutritional supplement of in vitro cultures; type: cell-based; conditions: mevalonate-fed cultures
Protocol: To investigate this, we used ^14C-mevalonic acid to determine rate of incorporation by Leishmania (1.0 ng/hr/108 parasites at 25° C, using the respirometric assay. We also looked at mevalonic acid catabolism and found mevalonate is sparingly metabolized to CO2 (less than 1/25 the rate of aspartic acid metabolism, a most rapidly catabolized amino acid, Jackson, et al., 1989, Am J Trop Med Hyg 41, 318-330) even when the promastigotes are maintained under starvation condition for 30 minutes. When mevalonate was added as a nutritional supplement the parasites grew profusely but less rapidly than parallel unsupplemented control cultures. […] Given these preliminary observations: it appears Leishmania (a) incorporate mevalonic acid readily from their environment; (b) catabolism is spared even under starvation conditions; and (c) mevalonic acid can act as a nutritional supplement in vitro.

[9] = tested on: macrophage cholesterol synthesis; conditions: cited from earlier work
[10] = read-out: IC50 KETRI 243 As-103
[11] = Table 7, HMI-18 medium, 10% fetal bovine serum, 48 h, read-out: IC50 Lab 110 EATRO
[12] = Table 7, HMI-18 medium, 10% fetal bovine serum, 48 h, read-out: IC50 243
[13] = Table 7, HMI-18 medium, 10% fetal bovine serum, 48 h, read-out: IC50 269
[14] = Table 7, HMI-18 medium, 10% fetal bovine serum, 48 h

N=C(N)c1ccc(OCCCCCOc2ccc(C(=N)N)cc2)cc1 [Pentamidine]
IC50 [1, 10]: 0.003 µg/mL (≈ 0.00881 µM) | IC50 ([2]; Table 1, 48 hr cultures, HMI-18 medium, read-out: IC50 EATRO 110): 0.00048 µg/mL (≈ 0.00141 µM) | IC50 ([3]; Table 1, 48 hr cultures, HMI-18 medium, read-out: IC50 KETRI 243): 0.00186 µg/mL (≈ 0.00546 µM) | IC50 ([4]; Table 1, 48 hr cultures, HMI-18 medium, read-out: IC50 KETRI 269): 0.00192 µg/mL (≈ 0.00564 µM)

C=C(CC[C@]12O[C@H](C(=O)O)[C@@](O)(C(=O)O)[C@](C(=O)O)(O1)[C@H](OC(=O)/C=C/[C@@H](C)C[C@@H](C)CC)[C@H]2O)[C@@H](OC(C)=O)[C@H](C)Cc1ccccc1 [Zaragozic acid A]
pIC50 [5]: 10.11

CC1=C(/C=C/C(C)=C/C=C/C(C)=C/C=C/C=C(C)/C=C/C=C(C)/C=C/C2=C(C)CCCC2(C)C)C(C)(C)CCC1 [beta-carotene]
cholesterol synthesis inhibited from acetate [6]: 63%

CN(C/C=C/C#CC(C)(C)C)Cc1cccc2ccccc12 [Lamisil, 1-Naphthalenemethanamine, N-(6,6-dimethyl-2-hepten-4-ynyl)-N-methyl-, (E)-]
IC50 ([1]; read-out: IC50 243 As 10-3): > 100 µg/mL | IC50 [2, 11]: 1.3 µg/mL (≈ 4.46 µM) | IC50 [3, 12]: 86 µg/mL (≈ 295 µM) | IC50 [4, 13]: 77 µg/mL (≈ 264 µM)

CN(C/C=C/c1ccccc1)Cc1cccc2ccccc12 [Naftifine, 1-Naphthalenemethanamine, N-methyl-N-(3-phenyl-2-propenyl)-(E)]
pIC50 [7]: 6.03

COCc1c(C(C)C)nc(C(C)C)c(/C=C/[C@@H](O)C[C@@H](O)CC(=O)O)c1-c1ccc(F)cc1 [Baycol, 7-[4-(4-fluorophenyl)-5-(methoxymethyl)-2,6-bis(1-methylethyl)-3-pyridinyl]-3,5-dihydroxy-, monosodium salt, [S-(R*,S*-(E))]]-]
IC50 ([1]; read-out: IC50 243 As 10-3): 52 µg/mL | IC50 [2, 11]: 13 µg/mL | IC50 [3, 12]: 7.7 µg/mL

C=C(CC[C@]12O[C@H](C(=O)O)[C@@](O)(C(=O)O)[C@](C(=O)O)(O1)[C@H](OC(=O)/C=C/[C@@H](C)C[C@@H](C)CC)[C@H]2O)[C@@H](O)[C@H](C)Cc1ccccc1 [Squalestatin 2]
pIC50 [5]: 7.82

CCC(C)(C)C(=O)O[C@H]1C[C@@H](C)C=C2C=C[C@H](C)[C@H](CC[C@@H]3C[C@@H](O)CC(=O)O3)[C@H]21 (relative stereo) [Zocor, [1S-[1-alpha(beta-S*,delta-S*), 2-alpha, 6-alpha,8-beta(R*),8a-alpha]]2,2-dimethylbutanoic acid 1,2,3,7,8,8a-hexahydro-3,7-dimethyl-8-[2-(tetrahydro-4-hydroxy-6-oxo-2H-pyran-2-yl)ethyl]-1-naphthalenyl ester]
IC50 [2, 11]: 1.33 µg/mL (≈ 3.18 µM) | IC50 [3, 12]: 12.9 µg/mL (≈ 30.8 µM) | IC50 [4, 13]: 7 µg/mL (≈ 16.7 µM)

CC(=O)OC1OC(OC2C(OC3CC[C@@]4(C)C(=CCC5C4CC[C@@]4(C)C5CC5OC6(CC[C@@H](C)CO6)[C@@H](C)[C@@]54O)C3)OC(CO)C(O)C2OC2OC(C)C(O)C(O)C2O)C(O)C(O)C1O (stereo partly shown) [SU-1461, Mannispirostan A]
IC50 ([2]; Table 2, secondary extracts, * extracts precipitated in medium after 24 h, read-out: IC50 T.b. brucei 110): 6.4 µg/mL (≈ 6.89 µM)

C=C(CC[C@]12O[C@H](C(=O)O)[C@@](O)(C(=O)O)[C@](C(=O)O)(O1)[C@H](OC(=O)/C=C/[C@@H](C)C[C@@H](C)CC)[C@H]2O)[C@@H](OC(C)=O)[C@H](C)Cc1ccccc1 [Squalestatin 1]
pIC50 [5]: 7.82

C=C(CC[C@]12O[C@H](C(=O)O)[C@@](O)(C(=O)O)[C@](C(=O)O)(O1)[C@H](O)[C@H]2O)[C@@H](OC(C)=O)[C@H](C)Cc1ccccc1 [Squalestatin 3]
pIC50 [5]: 8.23

CCOC(=O)C(C)(C)Oc1ccc(Cl)cc1 [Atromid-S, Propanoic acid, 2-(4-chlorophenoxy)-2-methyl-, ethyl ester]
IC50 [2, 11]: > 100 µg/mL | IC50 [3, 12]: > 100 µg/mL

C/C=C/CCCC/C=C/CCCCC(=O)O[C@@H]1[C@@H](O)[C@@]2(CCC(C)C(O)C(C)C/C=C/c3ccccc3)O[C@H](C(=O)O)[C@@](O)(C(=O)O)[C@]1(C(=O)O)O2 (stereo partly shown) [Zaragozic acid B]
pIC50 [5]: 10.54

Nc1nc(N)nc(Nc2ccc([As]=O)cc2)n1 (stereo not shown) [Melarsen Oxide]
IC50 [1, 10]: 0.0072 µg/mL | IC50 ([2]; 48 h, read-out: IC50 EATRO 110): 0.00077 µg/mL | IC50 ([3]; 48 h, read-out: IC50 KETRI 243): 0.0025 µg/mL | IC50 ([4]; 48 h, read-out: IC50 KETRI 269): 0.0066 µg/mL

CC(=O)O[C@H](CCC[C@]12O[C@H](C(=O)O)[C@@](O)(C(=O)O)[C@](C(=O)O)(O1)[C@H](OC(=O)CC/C=C/[C@H](C)CCCc1ccccc1)[C@H]2O)[C@H](C)Cc1ccccc1 [Zaragozic acid C]
pIC50 [5]: 10.35

CC(C)n1c(/C=C/C(O)CC(O)CC(=O)O)c(-c2ccc(F)cc2)c2ccccc21 (racemic) [Lescol, 6-Heptenoic acid, 3,5-dihydro-7-[3-(4-fluorophenyl)-1-(1-methylethyl)-1H-indol-2-yl-]-[R*,S*-(E)]-, (+−)-]
IC50 Lab 110 EATRO [2, 14]: >100 µg/mL | IC50 243 [3, 14]: >100 µg/mL

C[C@@](O)(CCO)CC(=O)O [mevalonic acid]
logarithmic phase growth longer than unsupplemented cultures [8]: 2 fold | duration of logarithmic phase growth ([8]; unsupplemented ended at 4-5 days): > 10 days

CCN(C/C=C/C#CC(C)(C)C)Cc1cccc(OCc2cc(-c3ccsc3)cs2)c1 [NB-598]
pIC50 [7]: 9.12

CC[C@H](C)C(=O)O[C@H]1C[C@H](O)C=C2C=C[C@H](C)[C@H](CC[C@@H](O)C[C@@H](O)CC(=O)O)[C@H]21 [Pravachol, [1S-(1-alpha(beta-S*,delta-S*),2-alpha, 6-alpha,8-beta(R*),8a-alpha]]-1,2,6,7,8,8a-hexahydro-2-methyl-8-(2-methyl-1-oxobutoxy)-beta,delta,6-trihydroxy-1-Naphthaleneheptanoic acid monosodium salt]
LDL increased ([9]; 0.1 mg/ml pravastatin): 119% | concentration that increased cholesterol esterification [9]: ≤ 0.19 mg/mL | concentration that inhibited cholesterol esterification [9]: > 0.19 mg/mL | increased LDL degradation ([9]; humans, 40 mg/day for 8 weeks): 57% | inhibited cholesterol synthesis ([9]; humans, 40 mg/day for 8 weeks): 55-62% | IC50 [2, 11]: > 100 µg/mL | IC50 [3, 12]: > 100 µg/mL

Cc1ccc(C)c(OCCCC(C)(C)C(=O)O)c1 [Lopoid, Pentanoic acid, 5-(2,5-dimethylphenoxy)-2,2-dimethyl-]
IC50 [2, 11]: > 100 µg/mL | IC50 [3, 12]: > 100 µg/mL

CC[C@H](C)C(=O)O[C@H]1C[C@@H](C)C=C2C=C[C@H](C)[C@H](CC[C@@H]3C[C@@H](O)CC(=O)O3)[C@H]21 (relative stereo) [Mevacor, Butanoic acid, 2-methyl-,1,2,3,7,8,8a-hexahydro-3,7-dimethyl-8-[2-(tetrahydro-4-hydroxy-6-oxo-2H-pyran-2-yl)ethyl]-1-naphthalenyl ester,[1S[1alpha(R*),3alpha,7beta,8beta(2S*,4S*), 8abeta]]-]
IC50 Lab 110 EATRO [2]: 3.3 µg/mL (≈ 8.16 µM) | IC50 243 [3, 14]: 4.4 µg/mL (≈ 10.9 µM) | IC50 269 [4, 14]: 6.9 µg/mL (≈ 17.1 µM)
